Counter-ions that a name gives are not always drawn.

The target in the experiment is interaction between p53 and MDM2 proteins (recombinant GST-tagged MDM2) (Homo sapiens, UniProt Q00987). Nature of the experiment: HTRF assay of inhibition of the p53-MDM2 interaction (GST-MDM2 / biotinylated p53 peptide).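 Further: FRET read-out from Eu-labelled anti-GST antibody to streptavidin-APC, with 90 nM N-terminally biotinylated p53 peptide and 160 ng/ml GST-MDM2 in Tris-borate saline containing 1 mM DTT, 384-well format.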 The experiment is classed as binding. Particulars: HTRF, 0.02% BSA, 37° C. 1 h. A general note: Time-resolved FRET reads energy transfer from a long-lived donor to a nearby acceptor.
interaction between p53 and MDM2 proteins (recombinant GST-tagged MDM2), sequence (Q00987 whole entry): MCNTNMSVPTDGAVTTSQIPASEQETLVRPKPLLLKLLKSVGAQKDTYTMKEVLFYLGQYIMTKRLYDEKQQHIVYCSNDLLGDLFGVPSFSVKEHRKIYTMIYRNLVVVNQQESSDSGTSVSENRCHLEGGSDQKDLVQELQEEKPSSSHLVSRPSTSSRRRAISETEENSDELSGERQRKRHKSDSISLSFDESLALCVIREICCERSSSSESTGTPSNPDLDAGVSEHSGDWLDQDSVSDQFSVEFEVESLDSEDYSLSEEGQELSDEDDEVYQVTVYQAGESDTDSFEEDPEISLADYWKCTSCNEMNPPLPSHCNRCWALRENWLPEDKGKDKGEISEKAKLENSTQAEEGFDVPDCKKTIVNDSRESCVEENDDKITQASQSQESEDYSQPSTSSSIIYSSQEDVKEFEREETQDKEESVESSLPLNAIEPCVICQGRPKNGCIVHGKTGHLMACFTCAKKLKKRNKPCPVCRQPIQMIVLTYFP
Regarding `COc1cc(C(=O)OCCN2CCN(CCOC(=O)c3ccc(NC(=O)[C@@H]4N[C@@H](CC(C)(C)C)[C@](C#N)(c5ccc(Cl)cc5F)[C@H]4c4cccc(Cl)c4F)c(OC)c3)CC2)ccc1NC(=O)[C@@H]1N[C@@H](CC(C)(C)C)[C@](C#N)(c2ccc(Cl)cc2F)[C@H]1c1cccc(Cl)c1F` [Example 60, 4-{[(2R,3S,4R,5S)-4-(4-Chloro-2-fluoro-phenyl)-3-(3-chloro-2-fluoro-phenyl)-4-cyano-5-(2,2-dimethyl-propyl)-pyrrolidine-2-carbonyl]-amino}-3-methoxy-benzoic acid, 2-[4-(2-hydroxy-ethyl)-piperazin-1-yl]-ethyl ester, dimer], the concentration for half-maximal inhibition (IC50) – broadly, the concentration at which inhibition is half-maximal – was found to be 211 nM. As for `COc1cc(C(=O)OCC(N)=O)ccc1NC(=O)[C@@H]1N[C@@H](CC(C)(C)C)[C@](C#N)(c2ccc(Cl)cc2F)[C@H]1c1cccc(Cl)c1F` [Example 65, 4-{[(2R,3S,4R,5S)-4-(4-Chloro-2-fluoro-phenyl)-3-(3-chloro-2-fluoro-phenyl)-4-cyano-5-(2,2-dimethyl-propyl)-pyrrolidine-2-carbonyl]-amino}-3-methoxy-benzoic acid carbamoylmethyl ester], the figure is 12.9 nM; as for `COc1cc(C(=O)NCCN2CCN(C)CC2)ccc1NC(=O)[C@@H]1N[C@@H](CC(C)(C)C)[C@](C#N)(c2ccc(Cl)cc2F)[C@H]1c1cccc(Cl)c1F` [Example 26, (2R,3S,4R,5S)-4-(4-Chloro-2-fluoro-phenyl)-3-(3-chloro-2-fluoro-phenyl)-4-cyano-5-(2,2-dimethyl-propyl)-pyrrolidine-2-carboxylic acid {2-methoxy-4-[2-(4-methyl-piperazin-1-yl)-ethylcarbamoyl]-phenyl}-amide, hydrochloride], 8.67 nM. The figure for `COc1cc(C(=O)OCC2CCN(C)CC2)ccc1NC(=O)[C@@H]1N[C@@H](CC(C)(C)C)[C@](C#N)(c2ccc(Cl)cc2F)[C@H]1c1cccc(Cl)c1F` [Example 18, 4-{[(2R,3S,4R,5S)-4-(4-Chloro-2-fluoro-phenyl)-3-(3-chloro-2-fluoro-phenyl)-4-cyano-5-(2,2-dimethyl-propyl)-pyrrolidine-2-carbonyl]-amino}-3-methoxy-benzoic acid 1-methyl-piperidin-4-ylmethyl ester] is 24 nM.

These data come from patent publication US9371280B2, “Substituted pyrrolidine-2-carboxamides” (Hoffmann-La Roche Inc., priority 2012, dated 2016).
